Assays:
[1] = test system: A375 cells; assay: XTT assay for cell viability, A375 cells; assay type: cell-based; conditions: Homo sapiens, A-375, 72 h
Method in brief: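 RKO and A375 cells seeded at 1000-2000/well overnight, then exposed to compound for 72 h at 37° C., 5% CO2. XTT (1 mg/ml)/PMS (25 μM) added for 2-3 h; absorbance at 450 nm. Growth relative to DMSO control (100%); GI50 from sigmoidal dose-response fit.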

[2] = target: T1, B-RAFV600E (Homo sapiens, UniProt P15056, V600E); assay: B-RAFV600E radiometric assay; assay type: biochemical; conditions: read-out: Kinase assay B-Raf
T1 construct: purchased Millipore, USA 14-557
Method in brief: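 B-RAFV600E was preincubated 45 min at rt with compound in 1% DMSO. MEK-K97M (0.5 μg), 5 μM final cold ATP and [γ-32P]ATP were then added for 2 h at rt. Phosphorylated MEK was captured on P81 paper and scintillation-counted; IC50 came from a sigmoidal dose-response fit.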

[3] = test system: pERK in A375 cells; assay: In Cell Western (ICW) assay, pERK in A375 cells; assay type: cell-based; conditions: Homo sapiens, A-375, 3 h treatment
Method in brief: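 RKO or A375 cells were exposed to compounds for 3 h at 37 °C, then fixed and stained in-cell with antibodies to pERK1/2 (T202/Y204), pS6RP or pAKT T308, followed by a Eu-labelled secondary. Time-resolved fluorescence (340/615 nm) was normalized to Hoechst, and IC50 values were fitted sigmoidally against DMSO as 0% inhibition.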

[4] = target: T2, PI3Kα (Homo sapiens, UniProt P42336); assay: PI3 Kinase alpha TR-FRET assay; assay type: biochemical
T2 construct: made in house; host or cells: SF9 cells
Procedure: Compound inhibition for PI3Kα was determined in a homogeneous TR-FRET assay using a PI3Kα assay kit (Millipore, US, Catalog #33-016). The PI3 kinase catalyzes phosphorylation of […] (PIP2) to phosphatidylinositol 3,4,5-trisphosphate (PIP3) in the presence of ATP and Mg^2+. The PIP3 product is detected by displacement of biotin-PIP3 from an energy transfer complex consisting of Europium labeled anti-GST monoclonal antibody, a GST-tagged pleckstrin homology (PH) domain, biotinylated PIP3 and Streptavidin-Allophycocyanin (APC). Excitation of Europium in the complex results in an energy transfer to the APC and a fluorescence emission at 665 nm.
Compounds tested were dissolved in DMSO and directly distributed into 384-well plates at a volume of 0.5 μL. P110/P85a/PIP2 mixture (14.5 μL) was added to compound wells and incubated for 30 min at rt […]. P110/P85a was expressed in SF9 cells and purified in-house. 5 ng P110/P85a was used in the assay. The kinase reaction was started by the addition of ATP. The assay concentrations of both PIP2 and ATP were 40 μM. The reaction mixture was incubated for 30 min and was terminated by the addition of stop mix and detection mix. Fluorescence was measured at 615 and 665 nm upon excitation at 340 nm in a Victor V5 fluorometer (Perkin Elmer, US). The fluorescence emission ratio at 665 to 615 nm, proportional to the kinase activity, was plotted against the compound concentration to generate dose-response curves and IC50 values were determined.

[5] = target: T3, mTOR kinase (Homo sapiens, UniProt P42345); assay: mTOR kinase TR-FRET assay; assay type: biochemical
T3 construct: purchased Millipore, US
Method in brief: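 TR-FRET with ULight-p70 S6K (Thr 389) peptide (50 nM) and 20 μM ATP in 50 mM HEPES pH 7.5, 1 mM EGTA, 3 mM MnCl2; compound pre-incubated with enzyme before substrate addition, reaction at rt, EDTA-stopped. Eu anti-phospho antibody read 665/615 nm; IC50 from sigmoidal dose-response fit.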

T1 sequence (P15056 416-766 V600E limits assumed): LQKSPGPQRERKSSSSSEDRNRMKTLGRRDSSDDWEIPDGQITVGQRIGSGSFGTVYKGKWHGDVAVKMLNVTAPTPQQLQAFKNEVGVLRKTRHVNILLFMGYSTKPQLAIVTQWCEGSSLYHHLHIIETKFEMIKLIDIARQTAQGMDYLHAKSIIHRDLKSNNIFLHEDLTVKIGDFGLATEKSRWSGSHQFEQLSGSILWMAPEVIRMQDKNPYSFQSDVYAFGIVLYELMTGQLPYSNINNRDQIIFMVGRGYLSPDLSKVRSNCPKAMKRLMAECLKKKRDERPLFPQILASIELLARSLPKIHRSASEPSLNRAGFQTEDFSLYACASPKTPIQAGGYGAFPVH
T3 sequence (P42345 1362-2549 limits assumed): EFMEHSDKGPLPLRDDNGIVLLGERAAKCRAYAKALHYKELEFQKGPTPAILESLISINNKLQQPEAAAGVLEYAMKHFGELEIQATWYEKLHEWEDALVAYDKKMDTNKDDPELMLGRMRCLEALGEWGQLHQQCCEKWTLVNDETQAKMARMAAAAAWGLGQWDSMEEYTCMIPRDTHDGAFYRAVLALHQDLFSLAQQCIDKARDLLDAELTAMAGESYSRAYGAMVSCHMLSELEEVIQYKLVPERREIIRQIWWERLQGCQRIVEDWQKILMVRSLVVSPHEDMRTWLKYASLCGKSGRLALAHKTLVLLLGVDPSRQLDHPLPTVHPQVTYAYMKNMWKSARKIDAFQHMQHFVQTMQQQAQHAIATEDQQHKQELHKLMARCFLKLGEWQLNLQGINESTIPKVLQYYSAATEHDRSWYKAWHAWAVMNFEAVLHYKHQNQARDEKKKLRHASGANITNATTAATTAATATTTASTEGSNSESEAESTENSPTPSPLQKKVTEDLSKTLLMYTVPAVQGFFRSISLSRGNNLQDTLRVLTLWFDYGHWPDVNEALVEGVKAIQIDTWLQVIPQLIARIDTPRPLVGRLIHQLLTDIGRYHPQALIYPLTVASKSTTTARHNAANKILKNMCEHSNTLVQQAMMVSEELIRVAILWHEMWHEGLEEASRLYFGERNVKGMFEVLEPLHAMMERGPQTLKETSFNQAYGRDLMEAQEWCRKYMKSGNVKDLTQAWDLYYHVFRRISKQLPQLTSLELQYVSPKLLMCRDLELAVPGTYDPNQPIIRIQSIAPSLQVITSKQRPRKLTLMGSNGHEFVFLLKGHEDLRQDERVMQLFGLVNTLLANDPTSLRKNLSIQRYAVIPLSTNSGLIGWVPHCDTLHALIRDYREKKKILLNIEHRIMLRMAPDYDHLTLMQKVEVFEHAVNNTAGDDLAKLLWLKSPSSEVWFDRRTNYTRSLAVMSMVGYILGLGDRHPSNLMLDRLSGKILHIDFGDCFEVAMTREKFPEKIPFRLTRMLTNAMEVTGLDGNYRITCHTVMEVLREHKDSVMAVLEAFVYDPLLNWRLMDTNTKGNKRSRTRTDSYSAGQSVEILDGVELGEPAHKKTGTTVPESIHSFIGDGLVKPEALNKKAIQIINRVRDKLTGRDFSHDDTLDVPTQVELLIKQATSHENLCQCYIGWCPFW
T2 sequence (P42336 whole entry, species assumed): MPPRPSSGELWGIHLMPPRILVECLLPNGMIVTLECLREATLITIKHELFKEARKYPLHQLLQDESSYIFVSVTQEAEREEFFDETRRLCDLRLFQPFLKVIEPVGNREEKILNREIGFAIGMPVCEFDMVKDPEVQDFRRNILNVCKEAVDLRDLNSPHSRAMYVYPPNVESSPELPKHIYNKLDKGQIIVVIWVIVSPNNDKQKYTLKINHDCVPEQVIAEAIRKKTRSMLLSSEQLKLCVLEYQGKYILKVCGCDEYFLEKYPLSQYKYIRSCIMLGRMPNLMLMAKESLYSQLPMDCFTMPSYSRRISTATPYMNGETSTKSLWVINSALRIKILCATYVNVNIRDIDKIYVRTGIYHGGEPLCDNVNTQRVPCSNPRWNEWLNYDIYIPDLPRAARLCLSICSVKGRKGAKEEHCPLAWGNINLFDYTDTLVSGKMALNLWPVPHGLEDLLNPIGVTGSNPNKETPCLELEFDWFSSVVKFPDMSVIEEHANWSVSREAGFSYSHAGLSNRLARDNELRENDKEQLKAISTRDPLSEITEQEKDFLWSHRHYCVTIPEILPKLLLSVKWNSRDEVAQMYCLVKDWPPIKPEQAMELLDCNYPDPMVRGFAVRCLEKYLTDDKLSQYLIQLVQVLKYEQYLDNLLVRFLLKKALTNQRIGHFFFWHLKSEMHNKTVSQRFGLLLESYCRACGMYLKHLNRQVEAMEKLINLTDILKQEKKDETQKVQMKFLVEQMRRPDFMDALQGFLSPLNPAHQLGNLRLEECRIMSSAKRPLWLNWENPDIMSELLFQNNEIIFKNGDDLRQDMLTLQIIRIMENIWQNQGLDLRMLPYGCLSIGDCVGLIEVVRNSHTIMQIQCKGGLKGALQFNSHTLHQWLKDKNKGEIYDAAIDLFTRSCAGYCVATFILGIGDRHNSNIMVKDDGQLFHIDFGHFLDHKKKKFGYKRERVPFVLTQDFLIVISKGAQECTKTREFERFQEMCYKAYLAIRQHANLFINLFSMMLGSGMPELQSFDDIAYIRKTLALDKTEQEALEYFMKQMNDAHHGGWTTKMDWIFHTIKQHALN
T2 sequence (P27986 whole entry partner, species assumed): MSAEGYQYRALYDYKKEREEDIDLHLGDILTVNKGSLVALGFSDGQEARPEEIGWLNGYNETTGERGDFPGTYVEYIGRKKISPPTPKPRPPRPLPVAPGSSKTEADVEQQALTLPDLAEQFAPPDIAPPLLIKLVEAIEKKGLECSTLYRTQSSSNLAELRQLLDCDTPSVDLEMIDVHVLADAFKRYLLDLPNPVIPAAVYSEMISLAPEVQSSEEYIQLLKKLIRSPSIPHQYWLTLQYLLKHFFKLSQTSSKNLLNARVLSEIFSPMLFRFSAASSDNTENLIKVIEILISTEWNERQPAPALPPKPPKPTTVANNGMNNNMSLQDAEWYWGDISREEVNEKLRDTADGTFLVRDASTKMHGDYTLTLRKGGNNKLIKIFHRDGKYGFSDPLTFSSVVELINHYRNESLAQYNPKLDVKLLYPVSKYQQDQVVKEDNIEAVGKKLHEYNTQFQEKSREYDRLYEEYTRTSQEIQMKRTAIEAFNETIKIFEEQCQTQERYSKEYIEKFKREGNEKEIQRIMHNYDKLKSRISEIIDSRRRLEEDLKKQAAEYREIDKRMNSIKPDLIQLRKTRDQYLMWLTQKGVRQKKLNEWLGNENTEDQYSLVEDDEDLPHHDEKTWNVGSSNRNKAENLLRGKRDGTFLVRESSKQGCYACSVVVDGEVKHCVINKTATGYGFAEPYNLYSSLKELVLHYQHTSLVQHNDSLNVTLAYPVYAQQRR

Row | Compound | IC50 [1] [nM] | IC50 [2] [nM] | IC50 [3] [nM] | IC50 [4] [nM] | IC50 [5] [nM]
1 | COc1cc(-c2c(F)ccc(NS(=O)(=O)CCCF)c2F)cc2c(N3CCOCC3)nc(-c3cccc4[nH]ncc34)nc12 [Example 81, N-(3-(2-(1H-indazol-4-yl)-8-methoxy-4-morpholinoquinazolin-6-yl)-2,4-difluorophenyl)-3-fluoropropane-1-sulfonamide] | 100 to 1000 | 1 to 100 | 1 to 100 | 100 to 1000 | 
2 | COc1cc(-c2c(F)ccc(NS(=O)(=O)CCCF)c2F)cc2c(N3CCOCC3)nc(-c3cnc(N)cc3C(F)(F)F)nc12 [Example 84, N-(3-(2-(6-amino-4-(trifluoromethyl)pyridin~3-yl)-8-methoxy-4-morpholinoquinazolin-6-yl)-2,4-difluorophenyl)-3-fluoropropane-1-sulfonamide] |  | 1 to 100 |  | 100 to 1000 | 
3 | CCCS(=O)(=O)Nc1cccc(-c2cc(OC)c3nc(-c4cnc(N)c(C)c4)nc(N4CCOCC4)c3c2)c1F [Example 26, N-(3-(2-(6-amino-5-methylpyridin-3-yl)-8-methoxy-4-morpholinoquinazolin-6-yl)-2-fluorophenyl)propane-1-sulfonamide] | 100 to 1000 | 100 to 1000 | 100 to 1000 | 100 to 1000 | 
4 | CCCS(=O)(=O)Nc1cccc(-c2cc(OC)c3nc(-c4cnc(N)c(Cl)c4)nc(N4CCOCC4)c3c2)c1F [Example 48, N-(3-(2-(6-amino-5-chloropyridin-3-yl)-8-methoxy-4-morpholinoquinazolin-6-yl)-2-fluorophenyl)propane-1-sulfonamide] |  | 1 to 100 |  | 100 to 1000 | 
5 | C[C@@H]1COCCN1c1nc(-c2cnc(N)cc2C(F)(F)F)nc2ccc(-c3cccc(NS(=O)(=O)CCCF)c3F)nc12 [Example 107, (R)-N-(3-(2-(6-amlno-4-(trifluoromethyl)pyridin-3-yl)-4-(3-methylmorpholino)pyrido[3,2-d]pyrimidin-6-yl)-2-fluorophenyl)-3-fluoropropane-1-sulfonamide] |  | 1 to 100 |  | 100 to 1000 | 
6 | CCCS(=O)(=O)Nc1cccc(-c2cc(OC)c3nc(-c4cnc(N)cc4C(F)(F)F)nc(N4CCOCC4)c3c2)c1F [Example 25, N-(3-(2-(6-amino-4-(trifluoromethyl)pyridin-3-yl)-8-methoxy-4-morpholinoquinazolin-6-yl)-2-fluorophenyl)propane-1-sulfonamide] |  | 100 to 1000 | 100 to 1000 | 100 to 1000 | 
7 | O=S(=O)(CCCF)Nc1cccc(-c2ccc3nc(-c4cccc5[nH]ncc45)nc(N4CCOCC4)c3n2)c1F [Example 89, N-(3-(2-(1H-indazol-4-yl)-4-morpholinopyrido[3,2-d]pyrimidin-6-yl)-2-fluorophenyl)-3-fluoropropane-1-sulfonamide] |  | 1 to 100 |  | 100 to 1000 | 100 to 1000
8 | NCCOc1cc(-c2cccc(NS(=O)(=O)CCCF)c2F)cc2c(N3CCOCC3)nc(-c3ccc(N)nc3)nc12 [Example 56, N-(3-(8-(2-aminoethoxy)-2-(6-aminopyridtn-3-yl)-4-morpholinoquinazolin-6-yl)-2-fluorophenyl)-3-fluoropropane-1-sulfonamide] |  | 1 to 100 | 1 to 100 | 100 to 1000 | 1 to 100
9 | Nc1ncc(-c2nc(N3CCOCC3)c3nc(-c4cccc(NS(=O)(=O)c5c(F)cccc5F)c4F)ccc3n2)cn1 [Example 98, N-(3-(2-(2-aminopyrimidin-5-yl)-4-morpholinopyrido[3,2-d]pyrimidin-6-yl)-2-fluorophenyl)-2,6-difluorobenzenesulfonamide] |  | 1 to 100 |  | 1 to 100 | 100 to 1000
10 | O=S(=O)(CCCF)Nc1cccc(-c2ccc3nc(-c4cnc5[nH]ccc5c4)nc(N4CCOCC4)c3n2)c1F [Example 91, 3-fluoro-N-(2-fluoro-3-(4-morpholtno-2-(1H-pyrrolo[2,3-b]pyrldin-5-yl)pyrido[3,2-d]pyrimidin-6-yl)phenyl)propane-1-sulfonamide] |  | 1 to 100 |  | 1 to 100 | 1 to 100

More lines, now with the values ahead:

Row | IC50 [1] [nM] | IC50 [2] [nM] | IC50 [3] [nM] | IC50 [4] [nM] | IC50 [5] [nM] | Compound
11 |  | 100 to 1000 | 100 to 1000 | 1 to 100 | 100 to 1000 | Cc1cc(N)ncc1-c1nc(N2CCOC[C@@H]2C)c2nc(-c3cccc(NS(=O)(=O)CCCF)c3F)ccc2n1 [Example 130, (S)-N-(3-(2-(6-amino-4-methylpyridin-3-yl)-4-(3-methylmorpholino)pyrido[3,2-d]pyrimidin-6-yl)-2-fluorophenyl)-3-fluoropropane-1-sulfonamide]
12 |  | 1 to 100 | 100 to 1000 | 1 to 100 | 100 to 1000 | Cc1nc(N)ncc1-c1nc(N2CCOC[C@@H]2C)c2nc(-c3cccc(NS(=O)(=O)c4cc(F)ccc4F)c3F)ccc2n1 [Example 132, (S)-N-(3-(2-(2-amino-4-methylpyrimidin-5-yl)-4-(3-methylmorpholino)pyrido[3,2-d]pyrimidin-6-yl)-2-fluorophenyl)-2,5-difluorobenzenesulfonamide]
13 |  | 100 to 1000 | 100 to 1000 | 1 to 100 | 1 to 100 | C[C@H]1COCCN1c1nc(-c2ccc(N)nc2)nc2ccc(-c3cccc(NS(=O)(=O)CCCF)c3F)nc12 [Example 127, (S)-N-(3-(2-(6-aminopyridin-3-yl)-4-(3-methylmorpholino)pyrido[3,2-d]pyrimidin-6-yl)-2-fluorophenyl)-3-fluoropropane-1-sulfonamide]
14 |  | 100 to 1000 | 100 to 1000 | 1 to 100 | 100 to 1000 | Cc1nc(N)ncc1-c1nc(N2CCOC[C@@H]2C)c2nc(-c3cccc(NS(=O)(=O)CCCF)c3F)ccc2n1 [Example 131, (S)-N-(3-(2-(2-amino-4-methylpyrimidin-5-yl)-4-(3-methylmorpholino)pyrido[3,2-d]pyrimidin-6-yl)-2-fluorophenyl)-3-fluoropropane-1-sulfonamide]
15 |  | 1 to 100 |  | 100 to 1000 |  | CCNc1ncc(-c2nc(N3CCOCC3)c3nc(-c4cccc(NS(=O)(=O)CCCF)c4F)ccc3n2)cn1 [Example 122, N-(3-(2-(2-(ethylamino)pyrimidin-5-yl)-4-morpholinopyrido[3,2-d]pyrimidin-6-yl)-2-fluorophenyl)-3-fluoropropane-1-sulfonamide]
16 |  | 1 to 100 | 100 to 1000 | 1 to 100 | 100 to 1000 | CNc1ncc(-c2nc(N3CCOCC3)c3nc(-c4cccc(NS(=O)(=O)CCCF)c4F)ccc3n2)cn1 [Example 121, 3-fluoro-N-(2-fluoro-3-(2-(2-(methylamino)pyrimidin-5-yl)-4-morpholinopyrido[3,2-d]pyrimidin-6-yl)phenyl)propane-1-sulfonamide]
17 |  | 1 to 100 |  | 100 to 1000 | 100 to 1000 | CCCNc1ccc(-c2nc(N3CCOCC3)c3nc(-c4cccc(NS(=O)(=O)CCCF)c4F)ccc3n2)cn1 [Example 115, 3-fluoro-N-(2-fluoro-3-(4-morpholino-2-(6-(propylamino)pyridin-3-yl)pyrido[3,2-d]pyrimidin-6-yl)phenyl)propane-1-sulfonamide]
18 |  | 1 to 100 |  | 100 to 1000 |  | CCCNc1ncc(-c2nc(N3CCOCC3)c3nc(-c4cccc(NS(=O)(=O)CCCF)c4F)ccc3n2)cn1 [Example 112, 3-fluoro-N-(2-fluoro-3-(4-morpholino-2-(2-(propylamino)pyrimidin-5-yl)pyrido[3,2-d]pyrimidin-6-yl)phenyl)propane-1-sulfonamide]
19 |  | 1 to 100 | 100 to 1000 | 1 to 100 | 100 to 1000 | C[C@H]1COCCN1c1nc(-c2cnc(N)nc2)nc2ccc(-c3cccc(NS(=O)(=O)CCCF)c3F)nc12 [Example 128, (S)-N-(3-(2-(2-aminopyrimidin-5-yl)-4-(3-methylrnorpholino)pyrido[3,2-d]pyrimidin-6-yl)-2-fluorophenyl)-3-fluoropropane-1-sulfonamide]

Reference: US9499495B2, “Quinazolines and azaquinazolines as dual inhibitors of RAS/RAF/MEK/ERK and PI3K/AKT/PTEN/mTOR pathways” (Asana Biosciences, LLC, priority 2013, dated 2016)
